Data: PMC12609530, “Capillary Electrophoresis as a Useful Tool to Separate Isomeric Opioid–Neurotensin Hybrid Peptides” (Molecules, 2025)
Read-outs that look alike come from different tables or passages of the source. Square brackets hold non-standard residues; d marks the D form. Peptide text beside a SMILES is read from it. Dmt = Cc1cc(O)cc(C)c1C[C@H](N)C(=O)O; Tle = CC(C)(C)[C@H](N)C(=O)O

Settings: CE-UV 200 nm; for BenchTop Obtained Concentration, Mean ± SD / BenchTop Obtained Concentration, %: after 6 h at room temperature; for BenchTop Obtained Concentration, Mean ± SD: ACN/0.1% TFA extraction; for BenchTop Obtained Concentration, Mean ± SD / Freeze and Thaw Obtained Concentration, Mean ± SD / Short Term Obtained Concentration, Mean ± SD: mean ± SD for five replicates; for BenchTop Obtained Concentration, % / Freeze and Thaw Obtained Concentration, % / Short Term Obtained Concentration, %: % of spiked concentration, five replicates; for Freeze and Thaw Obtained Concentration, % / Freeze and Thaw Obtained Concentration, Mean ± SD: after three freeze and thaw cycles at −20 °C; for Short Term Obtained Concentration, % / Short Term Obtained Concentration, Mean ± SD: at −25 °C for 30 days
Experimental: To ensure the applicability of the method for bioanalytical studies, stability tests were conducted under various storage and handling conditions.
The stock solutions of PK20 and [Ile9]PK20 compounds at a concentration of 10,000 ng/mL were prepared by dissolving the appropriate amounts of the substances in a 25 mM phosphate buffer at pH 2.5. Calibration solutions at specific concentrations were prepared on their basis. All solutions were stored at −15 °C. […] Calibration solutions at concentrations of 10, 50, 100, 500, 1000, and 5000 ng/mL were prepared in both water and serum by adding appropriate volumes of the stock solutions to serum samples free of the tested analytes.
To a 100 µL serum sample, 200 µL of acetonitrile (ACN) containing 0.1% trifluoroacetic acid (TFA) was added then immediately mixed by vortexing and centrifuged at 20,000× g for 4 min. The resulting supernatant was filtered using an ultrafiltration centrifuge (MWCO 30,000; Microcon YM-30, Millipore Corporation, Bradford, MA, USA) and then lyophilized. The dry residue was dissolved in 100 µL of deionized water and introduced into the capillary. The extraction procedure for PK20 and [Ile9]PK20 compounds was performed for three concentration ranges, namely 20 ng/mL, 500 ng/mL, and 5000 ng/mL.
Samples were introduced into the system hydrodynamically at a pressure of 2 psi for 6 s. Electrophoresis was performed at a voltage of 10 kV (normal polarity, anode on the inlet side of the capillary) at a temperature of 25 °C. Between subsequent analyses, the capillary was rinsed with water for 2 min and with BGE for 3 min. After each series of analyses, the working buffer was replaced to ensure repeatable separations.

SMILES	BenchTop Obtained Concentration, Mean ± SD (spiked 50 ng/mL in serum) [ng/mL]	BenchTop Obtained Concentration, % (spiked 50 ng/mL in serum) [%]	Freeze and Thaw Obtained Concentration, % (spiked 50 ng/mL in serum) [%]	Freeze and Thaw Obtained Concentration, Mean ± SD (spiked 50 ng/mL in serum) [ng/mL]	Short Term Obtained Concentration, % (spiked 50 ng/mL in serum) [%]	Short Term Obtained Concentration, Mean ± SD (spiked 50 ng/mL in serum) [ng/mL]	BenchTop Obtained Concentration, Mean ± SD (spiked 500 ng/mL in serum) [ng/mL]	BenchTop Obtained Concentration, % (spiked 500 ng/mL in serum) [%]	Freeze and Thaw Obtained Concentration, % (spiked 500 ng/mL in serum) [%]	Freeze and Thaw Obtained Concentration, Mean ± SD (spiked 500 ng/mL in serum) [ng/mL]	Short Term Obtained Concentration, % (spiked 500 ng/mL in serum) [%]	Short Term Obtained Concentration, Mean ± SD (spiked 500 ng/mL in serum) [ng/mL]
Cc1cc(O)cc(C)c1C[C@H](N)C(=O)N[C@H](CCCCN)C(=O)N[C@@H](Cc1ccccc1)C(=O)N[C@@H](Cc1ccccc1)C(=O)N[C@@H](CCCCN)C(=O)N[C@@H](CCCCN)C(=O)N1CCC[C@H]1C(=O)N[C@@H](Cc1ccccc1)C(=O)N[C@H](C(=O)N[C@@H](CC(C)C)C(=O)O)C(C)(C)C [PK20, H-Dmt-D-Lys-Phe-Phe-Lys-Lys-Pro-Phe-Tle-Leu-OH] (H-[Dmt][dK]FFKKPF[Tle]L-OH)	23.92 ± 1.2	47.84	24.10	12.05 ± 1.5	95.04	47.52 ± 1.4	240.53 ± 0.9	48.11	25.24	126.20 ± 0.7	99.12	495.58 ± 1.1
CC[C@H](C)[C@H](NC(=O)[C@H](Cc1ccccc1)NC(=O)[C@@H]1CCCN1C(=O)[C@H](CCCCN)NC(=O)[C@H](CCCCN)NC(=O)[C@H](Cc1ccccc1)NC(=O)[C@H](Cc1ccccc1)NC(=O)[C@@H](CCCCN)NC(=O)[C@@H](N)Cc1c(C)cc(O)cc1C)C(=O)N[C@@H](CC(C)C)C(=O)O [[Ile9]PK20, H-Dmt-D-Lys-Phe-Phe-Lys-Lys-Pro-Phe-Ile-Leu-OH] (H-[Dmt][dK]FFKKPFIL-OH)	24.46 ± 1.1	48.92	25.44	12.72 ± 1.4	97.70	48.85 ± 1.2	246.15 ± 1.0	49.23	25.51	127.53 ± 1.2	99.56	497.80 ± 1.1
